Read-outs that look alike come from different tables or passages of the source.
Columns and labels:
DYRK1A protein kinase = DYRK1A protein kinase (Homo sapiens (Human), UniProt Q13627); assay: Radiometric protein kinase assay (33PanQinase Activity Assay); format: biochemical; details: 10 concentrations in triplicate, 1 μM ATP; read-out: IC50: Concentration of drug (μM) needed in order to inhibit dyrk1A kinase activity by 50%
Procedure: The IC50 profile of JR212, JR220, JR84, CV12, CV24, and JR95 was determined on DYRK1A protein kinase. […] Compound cv12 was tested in the range from about 5×10^−5 M to about 1.5×10^−9 M in triplicate.
A radiometric protein kinase assay (33PanQinase® Activity Assay) was used for measuring the kinase activity of DYRK1A protein kinase. All kinase assays were performed in 96-well FlashPlates™ from Perkin Elmer (Boston, Mass., USA) in a 50 μl reaction volume. The reaction cocktail was pipetted in four steps in the following order: 20 μl of assay buffer (standard buffer); 5 μl of [γ-33P]-ATP solution (in H2O); 5 μl of test compound (in 10% DMSO); 10 μl of substrate/10 μl of enzyme solution (premixed).
The assay contained 60 mM HEPES-NaOH, pH 7.5, 3 mM MgCl2, 3 mM MnCl2, 3 μM Na-orthovanadate, 1.2 mM DTT, 50 μg/ml PEG20000, 1 μM [γ-^33P]-ATP (approx. 3×10^5 cpm per well), protein kinase, and substrate.
For the determination of inhibitory profiles, DYRK1A protein kinase was used, which was purchased from Invitrogen Corporation. The kinase was expressed in […] as human recombinant GST-fusion protein by means of the baculovirus expression system. According to the data sheet, the purity of the kinase was checked by SDS-PAGE/Coomassie staining and the identity of the kinase was verified by mass spectroscopy. About 5 ng/50 μl (about 0.9 nM) of dyrk1A kinase and about 2000 ng/50 μl of substrate (RBER-CHKtide) are used in each assay.
The reaction cocktails were incubated at 30° C. for 60 minutes. The reaction was stopped with 50 μl of 2% (v/v) H3PO4, plates were aspirated and washed two times with 200 μl 0.9% (w/v) NaCl. Incorporation of ^33P was determined with a microplate scintillation counter (Microbeta, Wallac).
All assays were performed with a BeckmanCoulter/SAGIAN™ Core System.
For each plate, the median value of the cpm of the wells with complete reaction cocktails, but without kinase or compound to be tested, was defined as “low control” (n=8). This value reflects unspecific binding of radioactivity to the plate in the absence of protein kinase but in the presence of the substrate. Additionally, for each plate the median value of the cpm of the wells with the complete reaction cocktail, but without any compound, was taken as the “high control”, i.e., full activity in the absence of any inhibitor (n=8). The difference between high and low control of was taken as 100% activity for each kinase. As part of the data evaluation the “low control” value from a particular plate was subtracted from the “high control” value as well as from all 80 “compound values” of the corresponding plate. The residual activity (in %) for each compound well was calculated by using the following formula: Res. Activity (%)=100×[(cpm of compound−low control)/(high control−low control)].

Hs683 glioma cells = assay: MTT test, overall cell growth, Hs683; format: cell-based, human
Outline: (§1)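 Glioma (Hs683, T98G, U373) and oesophageal (OE21, OE33) lines seeded at 5,000–8,000 cells/well, treated 24 h later with compound at 1×10^−8 to 1×10^−4 M for 72 h at 37 °C, in sestuplicate.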

[1] = system: human cancer cell lines (U373, T98G, Hs683, OE21, OE33); assay: MTT test, mean over the cancer cell lines; format: cell-based
Outline: as §1

T98G glioma cells = assay: MTT test, overall cell growth, T98G; format: cell-based, human; details: 72 hours of incubation
Outline: as §1

[2] = Homo sapiens, Hs 683, 72 hours of incubation
[3] = Homo sapiens, Table 4, mean over cell lines, read-out: IC50 μM growth inhibition (MTT test)
[4] = Homo sapiens, mean over the cancer cell lines, MTT test, read-out: IC50 Mean ± SEM
[5] = Table 4, mean over cell lines, read-out: IC50 μM growth inhibition (MTT test)
[6] = mean over the cancer cell lines, MTT test, read-out: IC50 Mean ± SEM

IC50 (DYRK1A protein kinase)	IC50 (Hs683 glioma cells; [2])	IC50 [1, 3]	IC50 [1, 4]	IC50 (T98G glioma cells; Homo sapiens, T98G)	Compound	IC50 (Hs683 glioma cells; 72 hours of incubation)	IC50 [1, 5]	IC50 [1, 6]	IC50 (T98G glioma cells)
16.3 µM	33 ± 1 µM	31 µM	31 ± 4 µM	36 ± 2 µM	Cc1nccc2c3ccc(OCc4ccccc4)cc3n(Cc3ccccc3)c12 [CV9/JR84, 1-methyl-7-benzyloxy-9-benzyl-β-carboline]				
21.2 µM	0.49 ± 0.05 µM	0.7 µM	0.7 ± 0.2 µM	0.48 ± 0.02 µM	Cc1c2c(cc[n+]1Cc1ccccc1)c1ccc(OCc3ccccc3)cc1n2Cc1ccccc1.[Br-] [CV21/JR95, 1-methyl-2-benzyl-7-benzyloxy-9-benzyl-β-carbolin-2-ium bromide]				
10 µM					Cc1nccc2c1[nH]c1cc(OCc3cccnc3)ccc12 [JR212]	30 ± 3 µM	29 µM	29 ± 1 µM	29 ± 2 µM

Compound	IC50 (DYRK1A protein kinase)	IC50 (Hs683 glioma cells; [2])	IC50 [1, 3]	IC50 [1, 4]	IC50 (T98G glioma cells; Homo sapiens, T98G)	IC50 (Hs683 glioma cells; 72 hours of incubation)	IC50 [1, 5]	IC50 [1, 6]	IC50 (T98G glioma cells)
COCCOc1ccc2c(c1)[nH]c1c(C)nccc12 [JR220]	15.5 µM					53 ± 6 µM	60 µM	60 ± 3 µM	61 ± 7 µM

— US9168247B2, “Beta carboline derivatives useful in the treatment of proliferative disorders” (FACULTES UNIVERSITAIRES NOTRE DAME DE LA PAIX, priority 2010, dated 2015)
